Test results taken from ChEMBL document CHEMBL2150933 (J Med Chem, 2012).

Legend:
MDA-MB-468 = assay: Cytotoxicity against human MDA-MB-468 cells after 48 hrs by SRB assay; type: functional; conditions: MDA-MB-468, 48 h
[1] = Toxicity in iv dosed CD1 mouse administered as single dose; type: organism-based; conditions: in vivo
EKVX = assay: Cytotoxicity against human EKVX cells after 48 hrs by SRB assay; type: functional
HOP-62 = assay: Cytotoxicity against human HOP62 cells after 48 hrs by SRB assay; type: functional; conditions: HOP-62, 48 h
A549 [2] = assay: Cytotoxicity against human A549 cells after 48 hrs by SRB assay; type: functional; conditions: A549, 48 h
RPMI-8226 = assay: Cytotoxicity against human RPMI8226 cells after 48 hrs by SRB assay; type: functional; conditions: RPMI-8226, 48 h
SR = assay: Cytotoxicity against human SR cells after 48 hrs by SRB assay; type: functional
K562 = assay: Cytotoxicity against human K562 cells after 48 hrs by SRB assay; type: functional; conditions: K562, 48 h
MOLT-4 = assay: Cytotoxicity against human MOLT4 cells after 48 hrs by SRB assay; type: functional; conditions: MOLT-4, 48 h
CCRF-CEM = assay: Cytotoxicity against human CCRF-CEM cells after 48 hrs by SRB assay; type: functional
HL-60 = assay: Cytotoxicity against human HL60 cells after 48 hrs by SRB assay; type: functional; conditions: HL-60, 48 h
BXPC-3 = assay: Cytotoxicity against human BxPC3 cells after 72 hrs by MTT assay; type: functional; conditions: BXPC-3, 72 h
COLO 205 [3] = assay: Cytotoxicity against human COLO205 cells after 72 hrs by MTT assay; type: functional; conditions: COLO 205, 72 h
A549 [4] = assay: Cytotoxicity against human A549 cells after 72 hrs by MTT assay; type: functional; conditions: A549, 72 h
HOP-92 = assay: Cytotoxicity against human HOP92 cells after 48 hrs by SRB assay; type: functional; conditions: HOP-92, 48 h
NCI-H226 = assay: Cytotoxicity against human NCI-H226 cells after 48 hrs by SRB assay; type: functional; conditions: NCI-H226, 48 h
NCI-H23 = assay: Cytotoxicity against human NCI-H23 cells after 48 hrs by SRB assay; type: functional; conditions: NCI-H23, 48 h
NCI-H460 = assay: Cytotoxicity against human NCI-H460 cells after 48 hrs by SRB assay; type: functional; conditions: NCI-H460, 48 h
NCI-H522 = assay: Cytotoxicity against human NCI-H522 cells after 48 hrs by SRB assay; type: functional; conditions: NCI-H522, 48 h
COLO 205 [5] = assay: Cytotoxicity against human COLO205 cells after 48 hrs by SRB assay; type: functional; conditions: COLO 205, 48 h
HCC 2998 = assay: Cytotoxicity against human HCC2998 cells after 48 hrs by SRB assay; type: functional; conditions: HCC 2998, 48 h
HCT-116 = assay: Cytotoxicity against human HCT116 cells after 48 hrs by SRB assay; type: functional; conditions: HCT-116, 48 h
HCT-15 = assay: Cytotoxicity against human HCT15 cells after 48 hrs by SRB assay; type: functional; conditions: HCT-15, 48 h
HT-29 = assay: Cytotoxicity against human HT-29 cells after 48 hrs by SRB assay; type: functional; conditions: HT-29, 48 h
KM12 = assay: Cytotoxicity against human KM12 cells after 48 hrs by SRB assay; type: functional; conditions: KM12, 48 h
SW-620 = assay: Cytotoxicity against human SW620 cells after 48 hrs by SRB assay; type: functional; conditions: SW-620, 48 h
SF-268 = assay: Cytotoxicity against human SF268 cells after 48 hrs by SRB assay; type: functional; conditions: SF-268, 48 h
SF-295 = assay: Cytotoxicity against human SF295 cells after 48 hrs by SRB assay; type: functional; conditions: SF-295, 48 h
SF-539 = assay: Cytotoxicity against human SF539 cells after 48 hrs by SRB assay; type: functional; conditions: SF-539, 48 h
SNB-19 = assay: Cytotoxicity against human SNB19 cells after 48 hrs by SRB assay; type: functional; conditions: SNB-19, 48 h
SNB-75 = assay: Cytotoxicity against human SNB75 cells after 48 hrs by SRB assay; type: functional; conditions: SNB-75, 48 h
U-251 = assay: Cytotoxicity against human U251 cells after 48 hrs by SRB assay; type: functional; conditions: U-251, 48 h
LOX IMVI = assay: Cytotoxicity against human LOXIMVI cells after 48 hrs by SRB assay; type: functional
Malme-3M = assay: Cytotoxicity against human MALME-3M cells after 48 hrs by SRB assay; type: functional
M14 = assay: Cytotoxicity against human M14 cells after 48 hrs by SRB assay; type: functional; conditions: M14, 48 h
MDA-MB-435 = assay: Cytotoxicity against human MDA-MB-435 cells after 48 hrs by SRB assay; type: functional; conditions: MDA-MB-435, 48 h
SK-MEL-2 = assay: Cytotoxicity against human SK-MEL-2 cells after 48 hrs by SRB assay; type: functional; conditions: SK-MEL-2, 48 h
SK-MEL-28 = assay: Cytotoxicity against human SK-MEL-28 cells after 48 hrs by SRB assay; type: functional; conditions: SK-MEL-28, 48 h
SK-MEL-5 = assay: Cytotoxicity against human SK-MEL-5 cells after 48 hrs by SRB assay; type: functional; conditions: SK-MEL-5, 48 h
UACC-257 = assay: Cytotoxicity against human UACC257 cells after 48 hrs by SRB assay; type: functional; conditions: UACC-257, 48 h
UACC-62 = assay: Cytotoxicity against human UACC62 cells after 48 hrs by SRB assay; type: functional; conditions: UACC-62, 48 h
IGROV-1 = assay: Cytotoxicity against human IGROV1 cells after 48 hrs by SRB assay; type: functional; conditions: IGROV-1, 48 h
OVCAR-3 = assay: Cytotoxicity against human OVCAR3 cells after 48 hrs by SRB assay; type: functional; conditions: OVCAR-3, 48 h
OVCAR-4 = assay: Cytotoxicity against human OVCAR4 cells after 48 hrs by SRB assay; type: functional; conditions: OVCAR-4, 48 h
OVCAR-5 = assay: Cytotoxicity against human OVCAR5 cells after 48 hrs by SRB assay; type: functional; conditions: OVCAR-5, 48 h
OVCAR-8 = assay: Cytotoxicity against human OVCAR8 cells after 48 hrs by SRB assay; type: functional; conditions: OVCAR-8, 48 h
[6] = Cytotoxicity against human NCI-ADR-RES cells after 48 hrs by SRB assay; type: functional
SK-OV-3 = assay: Cytotoxicity against human SKOV3 cells after 48 hrs by SRB assay; type: functional; conditions: SK-OV-3, 48 h
[7] = Cytotoxicity against human 786-O cells after 48 hrs by SRB assay; type: functional; conditions: 786-0, 48 h
A498 = assay: Cytotoxicity against human A498 cells after 48 hrs by SRB assay; type: functional; conditions: A498, 48 h
ACHN = assay: Cytotoxicity against human ACHN cells after 48 hrs by SRB assay; type: functional
CAKI-1 = assay: Cytotoxicity against human Caki1 cells after 48 hrs by SRB assay; type: functional; conditions: CAKI-1, 48 h
RXF 393 = assay: Cytotoxicity against human RXF393 cells after 48 hrs by SRB assay; type: functional; conditions: RXF 393, 48 h
SN12C = assay: Cytotoxicity against human SN12C cells after 48 hrs by SRB assay; type: functional
TK-10 = assay: Cytotoxicity against human TK10 cells after 48 hrs by SRB assay; type: functional; conditions: TK-10, 48 h
UO-31 = assay: Cytotoxicity against human UO31 cells after 48 hrs by SRB assay; type: functional; conditions: UO-31, 48 h
PC-3 = assay: Cytotoxicity against human PC3 cells after 48 hrs by SRB assay; type: functional; conditions: PC-3, 48 h
DU-145 = assay: Cytotoxicity against human DU145 cells after 48 hrs by SRB assay; type: functional; conditions: DU-145, 48 h
MCF7 = assay: Cytotoxicity against human MCF7 cells after 48 hrs by SRB assay; type: functional; conditions: MCF7, 48 h
MDA-MB-231 = assay: Cytotoxicity against human MDA-MB-231 cells after 48 hrs by SRB assay; type: functional; conditions: MDA-MB-231, 48 h
Hs-578T = assay: Cytotoxicity against human Hs578T cells after 48 hrs by SRB assay; type: functional
BT-549 = assay: Cytotoxicity against human BT549 cells after 48 hrs by SRB assay; type: functional; conditions: BT-549, 48 h
T47D = assay: Cytotoxicity against human T47D cells after 48 hrs by SRB assay; type: functional

With `CO[C@H](C(=O)C(C)=O)[C@@H]1Cc2cc3cc(O[C@H]4C[C@@H](O[C@H]5C[C@@H](O)[C@H](O)[C@@H](C)O5)[C@H](O)[C@@H](C)O4)c(C)c(O)c3c(O)c2C(=O)[C@H]1O[C@H]1C[C@@H](O[C@H]2C[C@@H](O[C@H]3C[C@H](O)[C@H](O)[C@@H](C)O3)[C@H](O)[C@@H](C)O2)[C@H](O)[C@@H](C)O1` the GI50 (MDA-MB-468) was 23.4 nM, the MTD [1] was 4 mg/kg and the GI50 (EKVX) was 91.2 nM. For the same molecule, the GI50 (HOP-62) was 16.6 nM, the GI50 (A549 [2]; read-out: pGI50 (converted)) was 24.6 nM and the GI50 (RPMI-8226) was 15.8 nM. For the same molecule, the GI50 (SR) was 11.8 nM, the GI50 (K562) was 19.5 nM and the GI50 (MOLT-4) was 27.5 nM. It also gave a GI50 (CCRF-CEM) of 24 nM, a GI50 (HL-60) of 17.4 nM and a GI50 (BXPC-3) of 300 nM. It also gave a GI50 (COLO 205 [3]) of 300 nM, a GI50 (A549 [4]) of 300 nM and a GI50 (HOP-92) of 19.9 nM. It also gave a GI50 (NCI-H226) of 34.7 nM, a GI50 (NCI-H23) of 14.8 nM and a GI50 (NCI-H460) of 17.8 nM. It also gave a GI50 (NCI-H522) of 19.9 nM, a GI50 (COLO 205 [5]; read-out: GI50) of 32 nM and a GI50 (COLO 205 [5]; read-out: pGI50 (converted)) of 30.2 nM. It also gave a GI50 (HCC 2998) of 12.9 nM, a GI50 (HCT-116) of 14.8 nM and a GI50 (HCT-15) of 182 nM. It also gave a GI50 (HT-29) of 24.6 nM, a GI50 (KM12) of 12.9 nM and a GI50 (SW-620) of 24 nM. It also gave a GI50 (SF-268) of 18.6 nM, a GI50 (SF-295; read-out: pGI50 (converted)) of 17 nM and a GI50 (SF-539) of 20.9 nM. The GI50 (SNB-19) was 17 nM, the GI50 (SNB-75) was 11 nM and the GI50 (U-251; read-out: pGI50 (converted)) was 17.4 nM. It also gave a GI50 (LOX IMVI) of 13.5 nM, a GI50 (Malme-3M) of 34.7 nM and a GI50 (M14) of 36.3 nM. The GI50 (MDA-MB-435) was 25.1 nM, the GI50 (SK-MEL-2) was 15.1 nM and the GI50 (SK-MEL-28) was 20.9 nM. For the same molecule, the GI50 (SK-MEL-5; read-out: pGI50 (converted)) was 22.4 nM, the GI50 (UACC-257) was 58.9 nM and the GI50 (UACC-62) was 13.5 nM. It also gave a GI50 (IGROV-1; read-out: pGI50 (converted)) of 23.4 nM, a GI50 (OVCAR-3) of 19.9 nM and a GI50 (OVCAR-4) of 72.4 nM. The GI50 (OVCAR-5) was 30.9 nM, the GI50 (OVCAR-8; read-out: pGI50 (converted)) was 25.7 nM and the GI50 [6] was 1660 nM. For the same molecule, the GI50 (SK-OV-3) was 25.1 nM, the GI50 [7] was 25.1 nM and the GI50 (A498) was 47.9 nM. For the same molecule, the GI50 (ACHN) was 74.1 nM, the GI50 (CAKI-1) was 126 nM and the GI50 (RXF 393) was 13.5 nM. It also gave a GI50 (SN12C) of 24.6 nM, a GI50 (TK-10) of 85.1 nM and a GI50 (UO-31) of 126 nM. It also gave a GI50 (PC-3) of 22.9 nM, a GI50 (DU-145) of 25.1 nM and a GI50 (MCF7) of 19.9 nM. It also gave a GI50 (MDA-MB-231; read-out: GI50) of 63 nM, a GI50 (MDA-MB-231; read-out: pGI50 (converted)) of 66.1 nM and a GI50 (Hs-578T) of 16.2 nM. The GI50 (BT-549) was 13.5 nM and the GI50 (T47D) was 33.9 nM.

`CO[C@H](C(=O)[C@@H](O)[C@@H](C)O)[C@@H]1Cc2cc3cc(O[C@H]4C[C@@H](O[C@@H]5C[C@@H](O)[C@H](O)[C@@H](C)O5)[C@H](O)[C@@H](C)O4)c(C)c(O)c3c(O)c2C(=O)[C@H]1O[C@H]1C[C@@H](O[C@@H]2C[C@@H](O)[C@@H](O[C@@H]3C[C@](C)(O)[C@H](O)[C@@H](C)O3)[C@@H](C)O2)[C@H](O)[C@@H](C)O1` [PLICAMYCIN] showed a GI50 (A549 [2]; read-out: GI50) of 79 nM, a GI50 (COLO 205 [5]; read-out: GI50) of 63 nM and a GI50 (SF-295; read-out: GI50) of 79 nM. The GI50 (U-251; read-out: GI50) was 63 nM, the GI50 (SK-MEL-5; read-out: GI50) was 63 nM and the GI50 (IGROV-1; read-out: GI50) was 158 nM. For the same molecule, the GI50 (OVCAR-8; read-out: GI50) was 79 nM and the GI50 (MDA-MB-231; read-out: GI50) was 166 nM.
